We go through 1 molecule from publication PMC9146984, “A Novel Proline-Rich Cathelicidin from the Alpaca Vicugna pacos with Potency to Combat Antibiotic-Resistant Bacteria: Mechanism of Action and the Functional Role of the C-Terminal Region” (Membranes, 2022).

Values after ≈ are worked out from the molar mass of the structure shown. Like-named read-outs stand apart in the source and are kept apart here. Where a SMILES comes first, the peptide text is derived from it. A value given as a limit tells only on which side of the number the result lay.

Series [1] deals with E. coli BW25113 ΔompF. The class given is cell-based, Escherichia coli. The conditions noted are these: Mueller–Hinton broth, 24 h, 37 °C, median. As to the method: (§1) The reduction of resazurin to resorufin was measured.
For series [2], the system named is E. coli BW25113 ΔsbmA. In kind it is cell-based, Escherichia coli. The note with it: Mueller–Hinton broth, 24 h, 37 °C, median. As to the method:
as §1

Series [3] has as its system E. coli BW25113 ΔmdtM. The class given is cell-based, Escherichia coli. The note with it: Mueller–Hinton broth, 24 h, 37 °C, median. Here is the method:
as §1

The subject of series [4] is E. coli BW25113. In kind it is cell-based, Escherichia coli. The note with it: BW25113, 24 h. As to the method: as §1
Series [5] deals with VicBac[1–22]-resistant E. coli MDR 1057 strain. The note with it: Mueller-Hinton broth supplemented with 0.9% NaCl; strain selected 14 days with VicBac[1-22]; cross-resistance. Here is the method:
(§2) Bacterial test cultures were grown in the Mueller-Hinton broth (MH; Sigma, St. Louis, MO, USA) at 37 °C to mid-log phase and then diluted with the 2× MH medium supplemented with 1.8% NaCl or without salt so that to reach a final cell concentration of 10^6 CFU/mL. 50 µL of the obtained bacterial suspension were added to aliquots of 50 µL of the peptide solutions serially diluted with sterilized 0.1% bovine serum albumin (BSA) in 96-well flat-bottom polystyrene microplates (Eppendorf #0030730011, Hamburg, Germany). […] To verify MIC values, the respiratory activity of the bacteria was determined. Briefly, 20 µL of 0.1 mg/mL resazurin (a redox indicator; Sigma, St. Louis, MO, USA) was added to the wells after 24 h of incubation, and the plate was incubated for an additional two hours. The reduction of resazurin to resorufin was measured. […] The results were expressed as the median values determined based on at least three independent experiments performed in triplicate.
(§3) Resistance induction experiments were performed using the previously described method. Briefly, on day one, the overnight culture of wild-type bacteria was diluted with the 2× MH broth supplemented with 1.8% NaCl to reach a final cell concentration of 10^6 CFU/mL. 50 µL of the obtained bacterial suspension were added to aliquots of 50 µL of the peptide solutions serially diluted with the sterilized 0.1% BSA in 96-well flat-bottom polystyrene microplates. After incubation for 20 ± 2 h at 37 °C and 950 rpm, MICs were determined as described above. For each subsequent daily transfer, 2–4 μL of the inoculum taken from the first well containing a sub-inhibitory drug concentration were diluted with 2 mL of the fresh 2× MH broth supplemented with 1.8% NaCl. […] 14 repeated passages in the presence of antimicrobial agents were made for each bacterial strain during the experiment. Bacteria that grew at the highest concentration of AMPs on the final day were passaged a further 3 times on drug-free agar plates before determining the final MIC value.

Series [6] concerns E. coli MDR CI 1057. The note with it: Mueller-Hinton broth supplemented with 0.9% NaCl. As to the method:
as §2, §3

In series [7] the test system is human embryonic kidney cells (HEK293T). Description: Cytotoxicity (MTT assay). The class given is cell-based. Here is the method: Hemolytic activity of the peptides was tested against the fresh suspension of human red blood cells (hRBC) using the hemoglobin release assay as described previously. Two experiments were performed with the hRBC from blood samples of independent donors. The quantitative data were represented as average means with standard deviations. The colorimetric 3-(4,5-dimethylthiazol-2-yl)-2,5-diphenyltetrazolium bromide (MTT) dye reduction assay was used to determine the cytotoxicity of the peptides against transformed human embryonic kidney cells (HEK293T). 10^4 cells per well in Dulbecco’s modified Eagle’s medium (DMEM/F12) supplemented with 10% fetal bovine serum (FBS; Invitrogen, Waltham, MA, USA) were placed into 96-well plates and then cultured in the CO2-incubator (5% CO2, 37 °C). After the media were removed, the peptides were dissolved in 100 µL of the same medium and added to cell cultures at different final concentrations. 20 h later, 20 μL of MTT (5 mg/mL; Sigma, St. Louis, MO, USA) was added to each well, and the plates were incubated for 4 h at 37 °C. Then, the media were discarded and a 100 µL dimethyl sulfoxide-isopropanol mixture at a ratio of 1:1 (v/v) was added to each well to dissolve the crystallized formazan. The absorbance at 570 nm was measured by a microplate reader AF2200 (Eppendorf, Hamburg, Germany). The optical density in the wells containing cells cultured without the peptides was assumed to represent 100% cell viability. Two independent experiments were performed for each peptide.

Series [8] concerns BW25113ΔsbmA with plasmid-borne wild-type SbmA. The class given is cell-based, Escherichia coli. The note with it: promoter J23119, pUC vector. Here is the method: as §1
(§4) A plasmid vector for the expression of sfGFP under the strong constitutive artificial promoter J23119 [33] was kindly provided by M.N. Baranova (Figure S2A). This plasmid was used for the preparation of the complementation plasmids overexpressing two SbmA variants in the SbmA-deficient E. coli strain. The plasmids were obtained by ligase-independent cloning procedure. Briefly, DNA parts were produced by PCR-amplification of the vector and target sbmA gene from wild-type E. coli MDR 1057 or VicBac[1–22]-resistant strain (Figure S2B). The DNA fragments purified by gel electrophoresis and having 22–23 bp overhangs were mixed with molar ratios of 2:1 (insert: linearized vector) and were subsequently transformed into chemically competent E. coli DH10B cells. Target plasmids were isolated from individual clones and then analyzed by DNA sequencing.

For series [9], the system named is BW25113ΔsbmA expressing the control protein sfGFP. In kind it is cell-based, Escherichia coli. The note with it: same promoter J23119. Here is the method:
as §1, §4

For series [10], the system named is BW25113ΔsbmA with plasmid-borne mutant SbmA bearing the tetrapeptide deletion. The class given is cell-based, Escherichia coli. The note with it: promoter J23119, pUC vector. Here is the method:
as §1, §4

Series [11] has as its system E. coli MDR 1057. The conditions noted are these: selection by VicBac[1–22], stable after three passages without peptide. As to the method: Resistance induction experiments were performed using the previously described method. Briefly, on day one, the overnight culture of wild-type bacteria was diluted with the 2× MH broth supplemented with 1.8% NaCl to reach a final cell concentration of 10^6 CFU/mL. 50 µL of the obtained bacterial suspension were added to aliquots of 50 µL of the peptide solutions serially diluted with the sterilized 0.1% BSA in 96-well flat-bottom polystyrene microplates. After incubation for 20 ± 2 h at 37 °C and 950 rpm, MICs were determined as described above. For each subsequent daily transfer, 2–4 μL of the inoculum taken from the first well containing a sub-inhibitory drug concentration were diluted with 2 mL of the fresh 2× MH broth supplemented with 1.8% NaCl. […] Bacteria that grew at the highest concentration of AMPs on the final day were passaged a further 3 times on drug-free agar plates before determining the final MIC value.

For the molecule `CC[C@H](C)[C@H](NC(=O)[C@H](CCCNC(=N)N)NC(=O)[C@@H]1CCCN1C(=O)[C@@H]1CCCN1C(=O)[C@@H](NC(=O)[C@H](CCCNC(=N)N)NC(=O)[C@@H]1CCCN1C(=O)[C@H](CCCNC(=N)N)NC(=O)[C@@H]1CCCN1C(=O)[C@@H](NC(=O)[C@H](CCCNC(=N)N)NC(=O)[C@@H]1CCCN1C(=O)[C@H](CCCNC(=N)N)NC(=O)[C@@H]1CCCN1C(=O)[C@H](CC(C)C)NC(=O)[C@H](CCCNC(=N)N)NC(=O)[C@@H]1CCCN1C(=O)[C@H](CCCNC(=N)N)NC(=O)[C@H](CCCNC(=N)N)NC(=O)[C@@H](NC(=O)[C@H](CCCNC(=N)N)NC(=O)[C@@H](N)CCCNC(=N)N)[C@@H](C)CC)C(C)C)[C@@H](C)CC)C(=O)O` [VicBac[1-22]] (H-RRIRRPRLPRPRVPRPRIPPRI-OH), the “Minimum inhibitory concentration, E. coli strain ΔompF” value was 8 µM (≈ 22.5 µg/mL) in [1] (0.9% NaCl: +) and 2 µM (≈ 5.62 µg/mL) in series [1] (0.9% NaCl: −). Further, the “Minimum inhibitory concentration, E. coli strain ΔsbmA” value in series [2] (0.9% NaCl: +) was found to be 16 µM (≈ 45 µg/mL); in [2] (0.9% NaCl: −), 4 µM (≈ 11.2 µg/mL). Further, the results for the “Minimum inhibitory concentration, E. coli strain ΔmdtM” value in series [3] (0.9% NaCl: +) and in [3] (0.9% NaCl: −) were 2 µM (≈ 5.62 µg/mL) and 4 µM (≈ 11.2 µg/mL), respectively. Further, the “Minimum inhibitory concentration, E. coli strain BW25113” value in series [4] is 2 µM (≈ 5.62 µg/mL). The “Minimum inhibitory concentration E.coli MDR 1057 14 days with VicBac [1-22]” value in [5] is over 128 µM. Further, the “Minimum inhibitory concentration E.coli MDR 1057 14 days w/o AMP” value in [6] (after 14 passages without antimicrobial agents) was 1 µM (≈ 2.81 µg/mL). Besides, the “Minimum inhibitory concentration E.coli MDR 1057 0 days” value in [6] (before passages) is 1 µM (≈ 2.81 µg/mL). For the same molecule, in series [7], the “moderate cytotoxic activity against human HEK293T cells” value is “not”. Moreover, the “MIC, BW25113ΔsbmA with plasmid-borne wild-type SbmA” value in [8] amounted to 1 µM. In [9], the “MIC, control strain BW25113ΔsbmA expressing sfGFP” value turned out to be 8 µM (≈ 22.5 µg/mL). Further, the “MIC, BW25113ΔsbmA with plasmid-borne mutant SbmA (tetrapeptide deletion)” value in series [10] is listed as 8 µM. In [11], the “MIC value after 10 passages subjected to selection” value was over 128 µM.
